Assay results as given in patent publication US9850218B2, “Thiazole compounds, compositions and methods for treatment of degenerative diseases and disorders” (MUSC FOUNDATION FOR RESEARCH DEVELOPMENT, priority 2013, dated 2017).

Columns and labels:
[1] = test system: 661W or C6 cells; assay: MTT assay: protection against calcium-ionophore A23187; type: cell-based; details: for viability at 0.1 µM: 100 nM compound; for viability at 0.5 µM: 500 nM compound; for viability at 1 µM: 1 μM compound; for viability at 0.0008 µM: 800 pM compound
Description: The compound 3-(4,5-Dimethylthiazol-2-yl)-2,5-diphenyltetrazolium bromide (MTT) is a tetrazolium ion that is reduced to a blue formazan dye via several families of NAD(P)H-dependent oxidoreductases. Formation of the formazan dye from MTT or other related tetrazolium dyes are commonly used as a viability assay even though, in fact, the assay is a metabolic capacity assay.
In this assay, 661W or C6 cells were maintained in DMEM supplemented with 10% FBS. 100 μl, of 70,000 cells/mL cells were seeded into each well of 96 well plates using DMEM supplemented with 5% FBS. Cells were then allowed to grow to confluency for 48 hours. The compounds of the invention were added in 2 μL media and calcium-ionophore A23187 was then added in 1 μL for a final concentration of 1 μM and after 24 h, 20 uL of 2 μg/mL MTT were added to each well and the cells were incubated for another 4 h after which 100 μL of 1% SDS in 0.01 M aqueous HCl were added to each well and the plates were incubated overnight. Absorbance was measured at 640 and 570 nM (background correction). The 1 μM ionophore A23187 caused about 50% loss in MTT signal at 24 h. Protection was calculated as the increase in absorbance of treatment groups normalized to the vehicle control.

[2] = test system: 661W or C6 cells; assay: XF FCCP-uncoupled oxygen consumption rate assay (IBMX treatment); type: cell-based; details: for activity at 1 µM: 1 uM compound
Description: The XF FCCP-uncoupled oxygen consumption rate assay assesses mitochondrial capacity by measuring cellular respiration. It was shown that the maximum FCCP-uncoupled oxygen consumption rate (OCR) was a good estimate of maximal mitochondrial capacity (Beeson 2010) and that IBMX treatment of 661W or C6 cells for 24 h caused a loss in maximal uncoupled OCR (Perron 2013). Thus, cells were pretreated with the exemplified compounds for 1 h, added 600 μM IBMX and then measured the uncoupled rate after 24 h. The OCR measurements were performed using a Seahorse Bioscience XF instrument (Seahorse Bioscience, Billerica, Md.), as previously published (Perron 2013). O2 leakage through the plastic sides and bottom of the plate was accounted for using the AKOS algorithm in the XF software package. Cells were plated on 96- or 24-well custom plates designed for use in the XF and grown to confluency in DMEM+5% FBS (48 h). The medium was then replaced with DMEM+1% FBS for 24 h, along with any treatments.

[3] = 1 μM A23187, 24 h, read-out: MTT Protection (%, concentration)
[4] = 1 h pretreatment, 600 μM IBMX, 24 h, read-out: XF FCCP OCR (% Ctrl, concentration)

Compound	viability at 0.1 µM [1, 3]	activity at 1 µM [2, 4]	other results
CNc1ccc2oc(C[C@H]3O[C@@]4(CC[C@H]3C)O[C@H]([C@H](C)C(=O)c3ccc[nH]3)[C@H](C)C[C@H]4C)nc2c1C(=O)O [Example A23187, reference compound]			loss in MTT signal ([1]; 1 μM ionophore A23187 alone, at 24 h): about 50%
O=C(Nc1ccc(F)cc1)c1sc(-c2ccccc2)nc1-c1ccccc1 [Example 4, N-(4-fluorophenyl)-2,4-diphenylthiazole-5-carboxamide]	64.1%	83%	
CCOC(=O)c1sc(-c2ccncc2)nc1-c1ccccc1 [Example 10, Ethyl 4-phenyl-2-(pyridin-4-yl)thiazole-5-carboxylate]		70%	viability at 0.5 µM [1, 3]: 88%
O=C(O)c1sc(-c2ccccc2)nc1-c1ccccc1 [Example 2, 2,4-Diphenylthiazole-5-carboxylic acid]	40%	77%	
CCOC(=O)c1sc(-c2ccccn2)nc1-c1ccccc1 [Example 7, Ethyl 4-phenyl-2-(pyridin-2-yl)thiazole-5-carboxylate]		75%	viability at 1 µM [1, 3]: 88%
O=C(Nc1ccccc1Nc1ccccc1)c1sc(-c2ccccn2)nc1-c1ccccc1 [Example 12, 4-Phenyl-N-(2-(phenylamino)phenyl)-2-(pyridin-2-yl)thiazole-5-carboxamide]		71%	viability at 0.0008 µM [1, 3]: 57.2%
CC(C)Cn1c(=O)n(C)c(=O)c2[nH]cnc21 [IBMX, reference compound]			decrease in the uncoupled rate ([2]; IBMX treatment alone (600 μM, 24 h)): ~50%
COCCN(C)C(=O)c1sc(-c2ccccc2)nc1-c1ccccc1 [Example 6, N-(2-methoxyethyl)-N-methyl-2,4-diphenylthiazole-5-carboxamide]	78.4%	81%	
O=C(O)c1sc(-c2ccccn2)nc1-c1ccccc1 [Example 11, 4-Phenyl-2-(pyridin-2-yl)thiazole-5-carboxylic acid]		76%	viability at 0.5 µM [1, 3]: 71.7%
O=C(Nc1ccccc1)c1sc(-c2ccccc2)nc1-c1ccccc1 [Example 3, N,2,4-Triphenylthiazole-5-carboxamide]		72%	viability at 1 µM [1, 3]: 47%
CCOC(=O)c1sc(-c2ccccc2)nc1-c1ccccc1 [Example 1, Ethyl 2,4-diphenylthiazole-5-carboxylate]	48%	71%	
CCOC(=O)c1sc(-c2ccc(OC)cc2)nc1-c1ccccc1 [Example 5, Ethyl 2-(4-methoxyphenyl)-4-phenylthiazole-5-carboxylate]	69%	82%	
CCOC(=O)c1sc(-c2ccccc2)nc1-c1ccccn1 [Example 9, Ethyl 2-phenyl-4-(pyridin-2-yl)thiazole-5-carboxylate]			viability at 10 µM ([1]; 10 μM compound, 1 μM A23187, 24 h, read-out: MTT Protection (%, concentration)): 98%; activity at 10 µM ([2]; 10 uM compound, 1 h pretreatment, 600 μM IBMX, 24 h, read-out: XF FCCP OCR (% Ctrl, concentration)): 71%
COc1ccc(NC(=O)c2sc(-c3ccccc3)nc2-c2ccccc2)cc1 [Example 8, N-(4-methoxyphenyl)-2,4-diphenylthiazole-5-carboxamide]		73%	viability at 0.0008 µM [1, 3]: 67.3%
